{
  "source": "patent US20240285637A1",
  "about": "“PHOSPHODIESTERASE INHIBITORS FOR THE MITIGATION OF FRAGILE X SYNDROME SYMPTOMS” (THE ROYAL INSTITUTION FOR THE ADVANCEMENT OF …, priority 2021, published 2024)",
  "key": {"[1]": {"test_system": "blood vessels (capillaries) in the molecular layer of the cerebellum", "test": "Acute slice vascular reactivity, cerebellar vermis slices (U46619 constriction, NMDA dilation)", "type": "cell-based, mouse", "set-up": "effect on the NMDA response (vasodilation) / vasodilation (direct action on blood vessels): dose or concentration left out as unconfirmed", "conditions": "Fmr1 KO cerebellum, pre-incubation with sildenafil"}, "[2]": {"test_system": "blood vessels in the somatosensory cortex", "test": "Acute slice vascular reactivity, somatosensory cortex", "type": "cell-based, mouse", "set-up": "effect on the NMDA response (vasodilation) / vasodilation (direct action on blood vessels): dose or concentration left out as unconfirmed", "conditions": "Fmr1 KO cortex, pre-incubation with sildenafil, at least some blood vessels"}, "[3]": {"test_system": "cerebellar stellate cells", "test": "Cell-attached recordings of action currents (intrinsic plasticity) after HFS of parallel fibers", "type": "cell-based, mouse", "conditions": "Fmr1 KO stellate cells, pre-treatment with 100 μM sildenafil", "source_text": "(§1) Cerebellum slice preparation: Mice (P21-35) were anesthetized with isoflurane and immediately decapitated. A block of cerebellar vermis was rapidly dissected from the mouse head and submerged in an ice-cold cutting solution perfused with carbogen gas (95% O2, 5% CO2). Cutting solution contains (in mM): 235 sucrose, 2.5 KCl, 1.25 NaH2PO4, 28 NaHCO3, 0.5 CaCl2, 7 MgCl2, 28 D-glucose, 1 ascorbic acid, and 3 sodium pyruvate (pH 7.4; 305-315 mOsmol/L). The block of vermis was then fastened to a platform, transferred to the slicing chamber and again submerged in ice-cold cutting solution, bubbled with carbogen throughout the remainder of the procedure. Thin slices of cerebellar vermis (300 μm) were obtained with a vibrating tissue sectioner (Leica VT1200; Leica Instruments, Nussloch, Germany). The slices were transferred to oxygenated artificial cerebrospinal fluid (ACSF) and held at room temperature (21° C.-23° C.) for at least 1 h before recordings were performed. […]\n(§2) For extracellular stimulations, thin walled borosilicate glass electrodes (OD 1.65 mm, ID 1.15 mm; King Precision Glass Inc, Claremont, CA, USA) were used with a tip resistance of <3 MΩ when filled with ACSF. […] To minimize variability between responses, the stimulating electrode was positioned 50-100 μm away from the recorded cell. […]"}, "[4]": {"test_system": "cerebellar stellate cells", "test": "Current-clamp recordings of PF-evoked synaptic events (GABAR plasticity)", "type": "cell-based, mouse", "conditions": "Fmr1 KO stellate cells, 100 μM sildenafil", "source_text": "as §1, §2"}, "[5]": {"test_system": "cerebellar stellate cells", "test": "Voltage-clamp recordings of pharmacologically-isolated GABAR currents, HFS paired with depolarization", "type": "cell-based, mouse", "conditions": "Fmr1 KO stellate cells", "source_text": "as §1, §2"}, "Fmr1 KO mice [6]": {"test_system": "Fmr1 KO mice", "test": "Prepulse inhibition of the acoustic startle response", "type": "in vivo, mouse", "conditions": "single dose of sildenafil 7.5 mg/kg i.p.", "source_text": "Behavior experiments-prepulse inhibition: PPI of the acoustic startle response (ASR) was studied in post-pubertal (PD 56-90) animals using an SR-LAB system (San Diego Instruments, San Diego, CA, USA) comprising two sound-attenuating chambers, each equipped with a cylindrical Plexiglas animal enclosure (length 16 cm, inner diameter 8.2 cm). A speaker positioned 24 cm directly above the enclosure provided the broadband tone pulses. A piezoelectric accelerometer affixed to the animal enclosure frame was used to detect and transduce motion resulting from the animals' startle response. Tone pulse parameters were controlled by a microcomputer using the software package (SR-LAB) and interface assembly that also digitized (0-4095), rectified, and recorded stabilimeter readings. All PPI studies were conducted between 09:00 and 17:00 h. Animals randomly received either saline or sildenafil (7.5 mg/kg i.p.) treatment. […] On the first two trials, the magnitude of the startle response to a 30 ms lasting 120 dB tone was measured. […] ASR was measured at each of the four prepulse intensities on five trials; animals were randomly presented with the startle tone alone during the other 10 trials. […]"}, "Fmr1 KO mice [7]": {"test_system": "Fmr1 KO mice", "test": "Locomotor activity in activity boxes (open field)", "type": "in vivo, mouse", "conditions": "sildenafil 7.5 mg/kg i.p.", "description": "Behavior experiments-locomotor activity: The locomotor activity was measured in an environment (activity boxes) novel to the animals, as described previously. Briefly, mice were handled for about 5 minutes once a day for one week before the testing. On the day of testing, animals were brought in their home cages to the anteroom (a room adjacent to the testing room separated by a door) and kept there for 30 minutes before drug or vehicle administration. Animals of both genotypes were randomly divided into two groups. One group received an i.p. injection of sildenafil (7.5 mg/kg; drug dissolved in sterilized PBS with 2% DMSO) and the other group an i.p. injection of the vehicle. One hour after the drug or vehicle administrations, the animals were placed in individual activity boxes (AccuScan Instruments, Inc., Columbus, OH, USA) (L×W×H=17.5 cm×10 cm×26 cm) in a dimly lit testing room where their locomotor activity was monitored for 90 min. The activity boxes were equipped with infrared sensors; beam breaks by the animals were used to assess locomotor activity. Data were collected using the Versamax™ Software (version 4.0, 2004; AccuScan Instruments, Inc.). The total horizontal activity for the whole 90 min session was used in the analysis."}, "[8]": {"test_system": "cerebellar stellate cells", "test": "Minimal stimulation protocol, evoked IPSCs before and after HFS (failure rate of GABAergic transmission)", "type": "cell-based, mouse", "conditions": "Fmr1 KO stellate cells"}},
  "note": "Entries after “also recorded” stand apart in the source; their conditions may differ.",
  "data": [
    {"smiles": "CCCc1nn(C)c2c(=O)[nH]c(-c3cc(S(=O)(=O)N4CCN(C)CC4)ccc3OCC)nc12", "note": "[sildenafil]", "values": [
      {"measurement": "effect on the NMDA response (vasodilation)", "setting": "[1]", "result": "little or no effect"},
      {"measurement": "effect on the NMDA response (vasodilation)", "setting": "[2]", "result": "rescue some of the deficits"},
      {"measurement": "long-term increase in baseline firing rates following HFS of PFs", "setting": "[3]", "result": "restored the long-term increase in baseline firing rates"},
      {"measurement": "GABAR plasticity (NMDAR-mediated inhibitory synapse strengthening), current-clamp", "setting": "[4]", "result": "rescued the complete loss of GABAR plasticity"},
      {"measurement": "GABAR plasticity (NMDAR-mediated inhibitory synapse strengthening), voltage-clamp", "setting": "[5]; 100 μM sildenafil", "result": "rescued the complete loss of GABAR plasticity"},
      {"measurement": "baseline properties of the cells", "setting": "[5]; current-clamp and voltage-clamp, data not shown", "result": "did not, however, affect baseline properties"},
      {"measurement": "deficits in prepulse inhibition (PPI)", "setting": "Fmr1 KO mice [6]", "result": "fully correct deficits; also recorded: rescued"},
      {"measurement": "enhanced locomotor activity / deficits in locomotion", "setting": "Fmr1 KO mice [7]", "result": "normalized the enhanced locomotor activity; also recorded: rescued"},
      {"measurement": "failure rate (mean)", "setting": "[8]; 10−100 μM sildenafil in the patch electrode, baseline, n=5", "result": "90.9+/−3.57%"},
      {"measurement": "failure rate, failed events (mean)", "setting": "[8]; 10−100 μM sildenafil in the patch electrode, post-HFS, n=5", "result": "59.44+/−8.36%"},
      {"measurement": "iLTP following HFS of parallel fibers", "setting": "[8]; sildenafil in the patch electrode", "result": "remarkable restoration of iLTP"}
    ]}
  ]
}
